Test results: ChEMBL document CHEMBL2429822, “Imaging probes of tau pathology” (ACS Med Chem Lett, 2013)
The source made the active and inactive calls. The rule behind the calls is not given here.

Key:
[1] = molecular target: Amyloid-beta precursor protein (Homo sapiens) (UniProt P05067); test: Binding affinity to human amyloid-beta plaques at 100 uM by fluorescence microscopy
[2] = molecular target: Microtubule-associated protein tau (Homo sapiens) (UniProt P10636); test: Binding affinity to human tau associated NFTs at 100 uM by fluorescence microscopy
Chain of Microtubule-associated protein tau (Homo sapiens) (P10636 whole entry): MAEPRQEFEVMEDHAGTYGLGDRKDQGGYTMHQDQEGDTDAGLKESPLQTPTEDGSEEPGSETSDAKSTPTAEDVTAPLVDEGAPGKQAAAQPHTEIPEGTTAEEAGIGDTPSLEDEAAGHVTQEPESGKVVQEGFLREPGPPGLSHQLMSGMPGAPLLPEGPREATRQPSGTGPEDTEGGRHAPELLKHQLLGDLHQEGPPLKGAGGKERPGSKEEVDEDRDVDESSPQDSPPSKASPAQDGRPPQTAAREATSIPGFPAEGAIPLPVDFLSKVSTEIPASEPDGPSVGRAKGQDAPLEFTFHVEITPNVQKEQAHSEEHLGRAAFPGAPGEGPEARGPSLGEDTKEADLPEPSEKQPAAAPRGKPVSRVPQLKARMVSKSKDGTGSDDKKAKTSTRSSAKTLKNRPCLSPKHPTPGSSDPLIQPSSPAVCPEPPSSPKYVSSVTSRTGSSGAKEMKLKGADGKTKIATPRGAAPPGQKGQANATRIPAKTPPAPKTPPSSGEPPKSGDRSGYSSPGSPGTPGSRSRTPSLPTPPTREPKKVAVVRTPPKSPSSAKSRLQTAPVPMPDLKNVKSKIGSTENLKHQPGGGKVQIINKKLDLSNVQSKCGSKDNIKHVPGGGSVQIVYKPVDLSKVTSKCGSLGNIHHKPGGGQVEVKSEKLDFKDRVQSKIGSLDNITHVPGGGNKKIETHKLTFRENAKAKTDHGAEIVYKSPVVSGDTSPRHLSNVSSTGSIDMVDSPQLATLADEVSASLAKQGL

[3] = molecular target: Amyloid-beta precursor protein (Homo sapiens) (UniProt P05067); test: Binding affinity to human amyloid-beta plaques at 10 uM by fluorescence microscopy
Brain [4] = test: Biodistribution in Wistar rat brain at 50 ug, iv after 60 mins by […] analysis; assay type: ADME, organism-based; settings: in vivo, 1 h
Brain [5] = test: Biodistribution in Wistar rat brain at 50 ug, iv after 10 mins by […] analysis; assay type: ADME, organism-based; settings: in vivo
Brain [6] = test: Biodistribution in Wistar rat brain at 50 ug, iv after 30 mins by […] analysis; assay type: ADME, organism-based; settings: in vivo, 0.5 h
Brain [7] = test: Biodistribution in Wistar rat brain at 50 ug, iv after 2 mins by […] analysis; assay type: ADME, organism-based; settings: in vivo
[8] = molecular target: Amyloid-beta precursor protein (Homo sapiens) (UniProt P05067); test: Binding affinity to human amyloid-beta plaques at 1 uM by fluorescence microscopy
[9] = molecular target: Microtubule-associated protein tau (Homo sapiens) (UniProt P10636); test: Binding affinity to human tau associated NFTs at 10 uM by fluorescence microscopy
[10] = molecular target: Microtubule-associated protein tau (Homo sapiens) (UniProt P10636); test: Binding affinity to human tau associated NFTs at 1 uM by fluorescence microscopy
Brain [11] = test: Ratio of clearance in Wistar rat brain at 50 ug after 2 mins to clearance in Wistar rat brain at 50 ug after 30 mins; assay type: ADME, tissue-based; settings: in vivo
Brain [12] = test: Ratio of clearance in C57B1/6 mouse brain at 2 MBq after 2 mins to clearance in C57B1/6 mouse brain at 2 MBq after 30 mins; assay type: ADME, tissue-based; settings: in vivo
Brain [13] = test: Biodistribution in C57B1/6 mouse brain at 2 MBq, iv after 60 mins by gamma-counting analysis; assay type: ADME, organism-based; settings: in vivo, 1 h
Brain [14] = test: Biodistribution in C57B1/6 mouse brain at 2 MBq, iv after 2 mins by gamma-counting analysis; assay type: ADME, organism-based; settings: in vivo
Brain [15] = test: Biodistribution in C57B1/6 mouse brain at 2 MBq, iv after 30 mins by gamma-counting analysis; assay type: ADME, organism-based; settings: in vivo, 0.5 h
Brain [16] = test: Biodistribution in C57B1/6 mouse brain at 2 MBq, iv after 10 mins by gamma-counting analysis; assay type: ADME, organism-based; settings: in vivo
[17] = tested as the 11C-labelled form

Chain of Amyloid-beta precursor protein (Homo sapiens) (P05067 whole entry): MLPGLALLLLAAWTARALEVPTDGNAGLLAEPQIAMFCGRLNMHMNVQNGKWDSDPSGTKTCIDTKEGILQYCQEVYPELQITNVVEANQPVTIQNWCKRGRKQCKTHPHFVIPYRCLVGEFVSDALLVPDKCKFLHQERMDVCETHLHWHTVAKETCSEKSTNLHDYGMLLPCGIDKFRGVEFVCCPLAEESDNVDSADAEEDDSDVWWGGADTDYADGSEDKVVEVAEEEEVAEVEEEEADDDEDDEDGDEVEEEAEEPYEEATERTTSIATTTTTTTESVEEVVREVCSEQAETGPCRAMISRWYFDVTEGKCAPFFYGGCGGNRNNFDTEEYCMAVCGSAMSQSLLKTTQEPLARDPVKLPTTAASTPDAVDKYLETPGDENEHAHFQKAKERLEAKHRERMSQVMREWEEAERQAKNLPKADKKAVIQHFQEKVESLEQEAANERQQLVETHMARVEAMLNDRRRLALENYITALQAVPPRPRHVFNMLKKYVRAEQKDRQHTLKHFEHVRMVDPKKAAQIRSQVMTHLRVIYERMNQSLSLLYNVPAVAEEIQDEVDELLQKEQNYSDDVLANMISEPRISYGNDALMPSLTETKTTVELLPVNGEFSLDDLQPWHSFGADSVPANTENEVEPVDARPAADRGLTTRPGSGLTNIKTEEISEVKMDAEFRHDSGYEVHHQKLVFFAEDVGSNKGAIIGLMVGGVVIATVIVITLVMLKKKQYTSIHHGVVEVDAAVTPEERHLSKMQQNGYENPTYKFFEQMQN

SMILES	Activity [1]	Activity [2]	Activity [3]	Activity [9]	Activity [10]	other results
CC(C)NC(=O)c1nn(-c2ccc(OCCF)cc2)c(=O)c2c(NC(=O)OC(C)(C)C)scc12	inactive	inactive				
CC(=C(C#N)C#N)c1ccc2cc(N(C)CCF)ccc2c1	Active	Active	Active	Active	Active	Activity [8]: Active
CC(C)(C)OC(=O)c1nn(-c2ccc(OCCF)cc2)c(=O)c2c(N)scc12	inactive	inactive				
CC(C)NC(=O)c1nn(-c2ccc(OCC(O)CF)cc2)c(=O)c2c(N)scc12 (configuration not stated)	inactive	inactive				
CC(C)NC(=O)c1nn(-c2ccc(OCC[18F])cc2)c(=O)c2c(N)scc12						Ratio (Brain [12]): 2.3; Drug uptake (Brain [13]): 2.35%; Drug uptake (Brain [14]): 6.5%; Drug uptake (Brain [15]): 2.83%; Drug uptake (Brain [16]): 3.26%
CNc1ccc(-c2nc3ccc(O)cc3s2)cc1						Activity [3, 17]: Active; Activity [8, 17]: Active; Activity [9, 17]: Active; Activity [1, 17]: Active; Activity [2, 17]: Active; Activity [10, 17]: inactive
CC(C)NC(=O)c1nn(-c2ccc(OCCC[18F])cc2)c(=O)c2c(N)scc12						Ratio (Brain [12]): 2.8; Drug uptake (Brain [13]): 1.51%; Drug uptake (Brain [14]): 9.84%; Drug uptake (Brain [15]): 3.46%; Drug uptake (Brain [16]): 5.77%

Continued, in another order:

Activity [1]	Activity [2]	Activity [3]	Activity [9]	Activity [10]	SMILES	other results
inactive	inactive				CC(C)NC(=O)c1nn(-c2ccc(OCCCF)cc2)c(=O)c2c(N)scc12	
Active	Active	Active	Active	Active	CC(C)NC(=O)c1nn(-c2ccc(OCCF)cc2)c(=O)c2c(N)scc12	Drug uptake (Brain [4]): 0.011%; Drug uptake (Brain [5]): 0.081%; Drug uptake (Brain [6]): 0.021%; Drug uptake (Brain [7]): 0.28%; Activity [8]: inactive; Ratio (Brain [11]): 13.3
Active	Active	inactive	Active	inactive	CC(C)NC(=O)c1nn(-c2ccc([N+](=O)[O-])cc2)c(=O)c2c(N)scc12	
Active	Active	inactive	inactive	inactive	CC(C)NC(=O)c1nn(-c2ccc(F)cc2)c(=O)c2c(N)scc12	Activity [8]: inactive
